Measured values published in patent US9393221B2, “Methods and compounds for reducing intracellular lipid storage” (THE GENERAL HOSPITAL CORPORATION, priority 2011, dated 2016).
Counter-ions that a name gives are not always drawn.

system: ATGL-KO iPSCs; test: High throughput iPSC chemical screening, Oil Red O (ORO) lipid accumulation; assay type: cell-based, mouse; settings: glycolytic switch compounds; for Z-score: test concentration or dose not given here

Compound | Rank in normalized ORO score from screen
CC1CC(OC(=O)c2ccccc2O)CC(C)(C)C1 (centres unmarked) [Homosalate] | 320
O=C(N/N=C/c1ccc([N+](=O)[O-])o1)c1ccc(O)cc1 [Nifuroxazide] | 957
CCN1CCCC(OC(=O)C(c2ccccc2)c2ccccc2)C1 (centres unmarked) [Piperidolate hydrochloride] | 449

same assay, conditions: normalized ORO level vs DMSO-treated cells; compound present during 7 days differentiation, 96-well; negative = decrease in lipid accumulation

Compound | Z-score
NCCC(=O)NCCc1c[nH]cn1 [Carcinine] | 0.6838
CN(C)C/C=C(/c1ccc(Br)cc1)c1cccnc1 [Zimelidine dihydrochloride monohydrate] | −0.7577
CC(=O)NC1CCSC1=O (racemic) [N-Acetyl-DL-homocysteine Thiolactone] | 0.1772
COc1ccc(C(=O)c2ccccc2)c(O)c1 [Oxybenzone] | −1.1732
OCCOCCN1CCN(C(c2ccccc2)c2ccc(Cl)cc2)CC1 (centres unmarked) [Hydroxyzine dihydrochloride] | −0.9071
C=C1c2cccc(O)c2C(=O)C2=C(O)[C@]3(O)C(=O)C(C(N)=O)=C(O)[C@@H](N(C)C)[C@@H]3[C@@H](O)[C@H]12 [Methacycline hydrochloride] | 2.309
CC(C(=O)O)c1ccc(C(=O)c2cccs2)cc1 (centres unmarked) [Suprofen] | −0.7501
O=C(c1ccc(OCCN2CCCCC2)cc1)c1c(-c2ccc(O)cc2)sc2cc(O)ccc12 [Raloxifene hydrochloride] | −0.8574
CN1CCCN=C1/C=C/c1cccc(O)c1.O=C(O)c1cc2ccccc2c(Cc2c(O)c(C(=O)O)cc3ccccc23)c1O [Oxantel pamoate] | 1.422
Cc1ccc(C)c(OCCCC(C)(C)C(=O)O)c1 [Gemfibrozil] | −0.2634
CCC1(C)CC(=O)NC(=O)C1 [Bemegride] | −0.3526
CCCCOc1cc(C(=O)NCCN(CC)CC)c2ccccc2n1 [Dibucaine] | 0.2274
CCC(C)(C)C(=O)O[C@H]1C[C@@H](C)C=C2C=C[C@H](C)[C@H](CC[C@@H]3C[C@@H](O)CC(=O)O3)[C@H]21 [Simvastatin] | 15.173
C[C@H](N)[C@H](O)c1cccc(O)c1 [Metaraminol bitartrate] | −0.9024
O=C(CCCN1CCC(O)(c2ccc(Br)cc2)CC1)c1ccc(F)cc1 [Bromperidol] | −0.6428
CC(C)N(CCC(C(N)=O)(c1ccccc1)c1ccccn1)C(C)C (centres unmarked) [Disopyramide] | −1.1535
Spiramycin | −1.0612
CCCC(C)(COC(N)=O)COC(=O)NC(C)C (centres unmarked) [Carisoprodol] | 0.5591
COC(=O)Nc1nc2ccc(C(=O)c3cccs3)cc2[nH]1 [Nocodazole] | 18.0445
C[C@]12N[C@H](Cc3ccccc31)c1ccccc12 [Dizocilpine maleate] | −1.1505
S=C(NC1CCCCC1)N1CCC(c2cnc[nH]2)CC1 [Thioperamide maleate] | −0.6114
CC(=O)O[C@H]1C(=O)[C@@]2(C)[C@H]([C@H](OC(=O)c3ccccc3)[C@]3(O)C[C@H](OC(=O)[C@H](O)[C@@H](NC(=O)c4ccccc4)c4ccccc4)C(C)=C1C3(C)C)[C@]1(OC(C)=O)CO[C@@H]1C[C@@H]2O [Paclitaxel] | 48.9183
C[C@@H]1C/C=C/C=C/C=C/C=C/[C@H](O[C@@H]2O[C@H](C)[C@@H](O)[C@H](N)[C@@H]2O)C[C@@H]2O[C@](O)(C[C@@H](O)C[C@H]3O[C@@H]3/C=C/C(=O)O1)C[C@H](O)[C@H]2C(=O)O [Natamycin] | 0.06039
O=C(CCCN1CCC(n2c(O)nc3ccccc32)CC1)c1ccc(F)cc1 [Benperidol] | −0.2696
C[C@]12CC[C@@H]3c4ccc(OS(=O)(=O)O)cc4CC[C@H]3[C@@H]1CCC2=O [Estropipate] | −1.7711

Compound | Z-score
COc1ccc(-c2cc(=O)c3c(O)cc(O)cc3o2)cc1 [Acacetin] | 0.4211
CC(=O)/N=c1/sc(S(N)(=O)=O)nn1C [Methazolamide] | 0.06841
Nc1nc2ncc(CNc3ccc(C(=O)N[C@@H](CCC(=O)O)C(=O)O)cc3)nc2c(=O)[nH]1 [Folic acid] | 1.253
COC1=CC(=O)O[C@@H](/C=C/c2ccccc2)C1 [Kawain] | −0.5048
COc1cc(C)nc(-n2nc(C)cc2OC)n1 [Epirizole] | −0.7031
CC[C@H](c1ccc(O)cc1)[C@@H](CC)c1ccc(O)cc1 [Hexestrol] | −1.0339
CC1=C(/C=C/C(C)=C/C=C/C(C)=C\C(=O)O)C(C)(C)CCC1 [Isotretinoin] | −1.1597
O=c1cc(-c2ccc(O)cc2)oc2cc(O)cc(O)c12 [Apigenin] | −0.2208
CCC[C@@H]1C[C@@H](C(=O)N[C@@H]([C@H]2O[C@H](SC)[C@H](O)[C@@H](O)[C@H]2O)[C@@H](C)O)N(C)C1 [Lincomycin hydrochloride] | 0.696
CC(C)N1CCN(c2ccc(OCC3COC(Cn4cncn4)(c4ccc(Cl)cc4Cl)O3)cc2)CC1 (centres unmarked) [Terconazole] | −0.3786
CCCCOc1cc(C(=O)OCCN(CC)CC)ccc1N [Benoxinate hydrochloride] | 0.4398
Clc1ccc(Cn2c(CN3CCCC3)nc3ccccc32)cc1 [Clemizole hydrochloride] | −0.5701
CCC(=O)O[C@]1(C(=O)CCl)[C@@H](C)C[C@H]2[C@@H]3CCC4=CC(=O)C=C[C@]4(C)[C@@]3(F)[C@@H](O)C[C@@]21C [Clobetasol propionate] | 2.1955
NC(CO)C(=O)NNCc1ccc(O)c(O)c1O (centres unmarked) [Benserazide hydrochloride] | −0.638
CO[C@]12C[C@@H](COC(=O)c3cncc(Br)c3)CN(C)[C@@H]1Cc1cn(C)c3cccc2c13 [Nicergoline] | 0.2433
NNc1nncc2ccccc12 [Hydralazine hydrochloride] | 9.342
CN[C@@H]1[C@H](O)[C@H](NC)[C@H]2O[C@@]3(O)C(=O)C[C@@H](C)O[C@H]3O[C@@H]2[C@H]1O [Spectinomycin dihydrochloride] | −0.1287
CC(O)(P(=O)(O)O)P(=O)(O)O [Etidronic acid, disodium salt] | −0.1368
O=c1[nH]c(=O)n([C@H]2C[C@H](O)[C@@H](CO)O2)cc1C(F)(F)F [Trifluridine] | 21.7513
CN1C[C@H](CO)C=C2c3cccc4[nH]cc(c34)C[C@H]21 [Lysergol] | −0.3809
CO[C@@]1(NC(=O)C2SC(=C(C(N)=O)C(=O)O)S2)C(=O)N2C(C(=O)O)=C(CSc3nnnn3C)CS[C@@H]21 (some centres unmarked) [Cefotetan] | 2.584
C[C@H]1C(=O)O[C@@H]2CCN3CC=C(COC(=O)[C@](C)(O)[C@]1(C)O)[C@H]23 [Monocrotaline] | −1.7819
O=C1c2c(O)ccc(O)c2C(=O)c2c(NCCNCCO)ccc(NCCNCCO)c21 [Mitoxantrone dihydrochloride] | 45.2169
CCc1cc(C(N)=S)ccn1 [Ethionamide] | −0.9932
CC(Cc1cccc(C(F)(F)F)c1)NCCOC(=O)c1ccccc1 (centres unmarked) [Benfluorex hydrochloride] | −1.1069

Compound | Z-score
CO[C@@]1(NC(=O)Cc2cccs2)C(=O)N2C(C(=O)O)=C(COC(N)=O)CS[C@@H]21 [Cefoxitin sodium salt] | −1.629
CC1CC(OC(=O)c2ccccc2O)CC(C)(C)C1 (centres unmarked) [Homosalate] | −0.7744
O=C(N/N=C/c1ccc([N+](=O)[O-])o1)c1ccc(O)cc1 [Nifuroxazide] | 1.279
C[N+]1(C)C[C@H](O)C[C@H]1C(=O)[O-] [Betonicine] | 0.1235
Cc1ncc(C[n+]2csc(CCO)c2C)c(N)n1 [Thiamine hydrochloride] | 1.576
Dihydroergotoxine mesylate | 1.217
O=C1CCC(N2C(=O)c3ccccc3C2=O)C(=O)N1 (centres unmarked) [Thalidomide] | −1.026
CC(=O)OC(C)C[N+](C)(C)C (centres unmarked) [Methacholine chloride] | −0.8044
N[C@@H](Cc1cc(I)c(Oc2cc(I)c(O)c(I)c2)c(I)c1)C(=O)O [Thyroxine (L)] | 0.1955
COc1cc2c(c(OC)c1OC)-c1ccc(O)c(=O)cc1C(N)CC2 (centres unmarked) [Trimethylcolchicinic acid] | 0.4127
CC(=O)O[C@H]1CC[C@@]2(C)C(=CC[C@@H]3[C@@H]2CC[C@]2(C)C(=O)CC[C@@H]32)C1 [Dehydroisoandosterone 3-acetate] | −0.697
NS(=O)(=O)c1cc2c(cc1C(F)(F)F)NC(Cc1ccccc1)NS2(=O)=O (centres unmarked) [Bendroflumethiazide] | 2.297
N[C@@H]1C[C@H]1c1ccccc1 [Tranylcypromine hydrochloride] | −0.2314
Cc1ccc(S(=O)(=O)NC(=O)NN2CCCCCC2)cc1 [Tolazamide] | 1.554
(S)-propranolol hydrochloride | 0.368
C[N+]1(C)[C@@H]2CC[C@H]1C[C@@H](OC(=O)C(CO)c1ccccc1)C2 (some centres unmarked) [Methylatropine nitrate] | −1.1494
c1ccc2[nH]c(-c3cscn3)nc2c1 [Tiabendazole] | −0.3752
CCOC(=O)O[C@]1(C(=O)COC(=O)CC)CC[C@H]2[C@@H]3CCC4=CC(=O)C=C[C@]4(C)[C@H]3[C@@H](O)C[C@@]21C [Prednicarbate] | −0.9408
CO[C@H]1/C=C/O[C@@]2(C)Oc3c(C)c(O)c4c(O)c(c(/C=N/N5CCN(C)CC5)c(O)c4c3C2=O)NC(=O)/C(C)=C\C=C\[C@H](C)[C@H](O)[C@@H](C)[C@@H](O)[C@@H](C)[C@H](OC(C)=O)[C@@H]1C [Rifampicin] | −0.5227
C[C@@H]1O[C@@H](O[C@H]2[C@H](Oc3cc(O)c4c(c3)O[C@H](c3ccc(O)cc3)CC4=O)O[C@H](CO)[C@@H](O)[C@@H]2O)[C@H](O)[C@H](O)[C@H]1O [Naringin hydrate] | 2.68
NCCc1cc[nH]n1 [Betazole hydrochloride] | −0.1702
COc1cccc2c1C(=O)c1c(O)c3c(c(O)c1C2=O)C[C@@](O)(C(=O)CO)C[C@@H]3O[C@H]1C[C@H](N)[C@H](O)[C@H](C)O1 [Doxorubicin hydrochloride] | 32.6438
CC[C@H]1OC(=O)[C@H](C)[C@@H](O[C@H]2C[C@@](C)(OC)[C@@H](O)[C@H](C)O2)[C@H](C)[C@@H](O[C@@H]2O[C@H](C)C[C@H](N(C)C)[C@H]2O)[C@](C)(O)C[C@@H](C)C(=O)[C@H](C)[C@@H](O)[C@]1(C)O [Erythromycin] | 1.131
CCN1CCCC(OC(=O)C(c2ccccc2)c2ccccc2)C1 (centres unmarked) [Piperidolate hydrochloride] | −0.4895
